# Measured values published in patent publication US12616740B2, “Methods of using a GIP/GLP1 co-agonist for therapy” (ELI LILLY AND COMPANY, priority 2018, dated 2026).
# Tests used:
# Format in all cases: in vivo, human
# [1] = system: patients with T2DM who have inadequate glycemic control; test: Phase 2 clinical study NCT03131687 (26 weeks): patients reaching HbA1c target
# Description: (§1) Clinical Study (NCT03131687) Supporting Maintenance Dose Embodiments A 6-month (26-week) Phase 2 double-blind clinical study is designed to evaluate the safety, efficacy, and PK/PD of 4 dose levels (1 mg, 5 mg, 10 mg and 15 mg respectively) of tirzepatide once weekly by subcutaneous injection compared with dulaglutide 1.5 mg. once weekly (QW) and placebo QW in patients with T2DM who have inadequate glycemic control with diet and exercise with or without a stable dose of metformin. Tirzepatide dose is up-titrated to the maintenance dose using the following weekly dose increments:
# (§2) The study also has a 4-week follow up period. In addition to safety and efficacy for treating T2DM, efficacy endpoints include the effect of tirzepatide on HbA1c, FBG, body weight, lipids, and waist circumference compared with placebo and with dulaglutide 1.5 mg. The study also evaluates the effect of tirzepatide on GI tolerability, hypoglycemia, hypersensitivity reactions, and pancreatic safety, as well as the development of treatment-emergent anti-drug antibodies. Model-based dose response analyses are performed to predict potential for significant HbA1c lowering and weight loss in longer studies. Statistical Analyses: Efficacy: The primary efficacy outcome of HbA1c change from baseline to the 26-week endpoint is analyzed using a Bayesian dose-response model. Analyses are performed on the intention to treat population (mITT) analysis set. Supportive analysis of the primary efficacy outcome for the mITT dataset are the model for post-baseline measures (MMRM) with body mass index (BMI) (<30 kg/m^2, ≥30 kg/m^2), metformin use, treatment, visit, and treatment-by-visit interaction as fixed effects, baseline HbA1c as a covariate, and patient as a random effect. The mean weight change from baseline at 12 and 26 weeks, along with the mean change from baseline of HbA1c at 12 weeks, is analyzed using similar dose-response models as the primary analyses. The percentages of patients with ≥5% or ≥10% body weight loss, reaching the HbA1c target of ≤6.5% or ≤7.0% at 26 weeks, or requiring rescue therapy are analyzed using logistic regression with fixed effects of treatment and strata, and baseline as a covariate. The changes from baseline in FBG (fasting blood glucose), SMBG (self-monitored blood glucose) levels, waist circumference, and mean percentage change in lipids from baseline to 12 and 26 weeks are analyzed using a similar MMRM to the one used for the primary analyses. Table Abbreviations: Dula 1.5 mg=dulaglutide 1.5 mg once weekly; LY means tirzepatide, and LY 1 mg=tirzepatide 1 mg once weekly; LY 5 mg=5 mg once weekly; LY 10 mg=escalation dose group tirzepatide once weekly with highest dose of 10 mg; LY 15 mg=escalation dose group of tirzepatide once weekly with highest dose 15 mg; LOCF=last observation-carried-forward; N=number of patients; pbo=placebo; Week 26=mITT on-treatment data at Week 26 excluding data after study drug discontinuation or rescue drug initiation; mITT=modified intent-to-treat; SD=standard deviation. For Table 4, n=number of patients in the population with baseline and post-baseline value at the specified time point. For Table 6, LY10 mg=escalation dose group tirzepatide, once weekly with highest dose of 10 mg; escalation dose: (5 mg weeks 0 and 1), LY15 mg=escalation dose group tirzepatide, once weekly with highest dose of 15 mg; escalation dose: (5 mg weeks 0 and 1; 10 mg weeks 2 to 5); N=number of patients in specified group, m=number of patients who experienced new event during interval, FolUp=follow up, T/Wk=Time range, (week) and %=means percent patients spending at least some time in treatment group who experienced new event during interval. For Table 7, n is the number of patients with events meeting the criteria; N is number of patients in the population; % is percent of patients in treatment group experiencing the event.
# [2] = NCT03131687: decrease appetite (reported event)
# Description: as §1, §2
# [3] = NCT03131687: weight loss at Week 26
# Description: as §1, §2
# [4] = LY 5 mg = tirzepatide 5 mg once weekly, LOCF Week 26 (N = 55)
# [5] = LY 5 mg = tirzepatide 5 mg once weekly, mITT Week 26 (N = 48)
# [6] = LY 10 mg = tirzepatide once weekly, escalation to highest dose 10 mg, LOCF Week 26 (N = 51)
# [7] = LY 10 mg = tirzepatide once weekly, escalation to highest dose 10 mg, mITT Week 26 (N = 44)
# [8] = LY 15 mg = tirzepatide once weekly, escalation to highest dose 15 mg, LOCF Week 26 (N = 53)
# [9] = LY 15 mg = tirzepatide once weekly, escalation to highest dose 15 mg, mITT Week 26 (N = 35)
# [10] = LY1 mg = tirzepatide 1 mg once weekly, N = 52
# [11] = LY5 mg = tirzepatide 5 mg once weekly, N = 55
# [12] = LY10 mg = tirzepatide once weekly, highest dose 10 mg, N = 51
# [13] = LY15 mg = tirzepatide once weekly, highest dose 15 mg, N = 53
# [14] = LY 1 mg = tirzepatide 1 mg once weekly, LOCF
# [15] = LY 1 mg = tirzepatide 1 mg once weekly, second line, analysis set not given (not LOCF)
# [16] = LY 5 mg = tirzepatide 5 mg once weekly, LOCF
# [17] = LY 5 mg = tirzepatide 5 mg once weekly, second line, analysis set not given (not LOCF)
# [18] = LY 10 mg = tirzepatide once weekly, highest dose 10 mg, LOCF
# [19] = LY 10 mg = tirzepatide once weekly, highest dose 10 mg, second line, analysis set not given (not LOCF)
# [20] = LY 15 mg = tirzepatide once weekly, highest dose 15 mg, LOCF
# [21] = LY 15 mg = tirzepatide once weekly, highest dose 15 mg, second line, analysis set not given (not LOCF)
substance,measurement,setting,value
tirzepatide [LY],HbA1c change from baseline (in words),"[1]; 5 mg, 10 mg, and 15 mg doses of tirzepatide, significantly different from placebo and from dulaglutide 1.5 mg",significantly decrease HbA1c from baseline
same,% of Patients Reaching HbA1c Target <5.7%,[1]; [4],3.6%
same,% of Patients Reaching HbA1c Target <6%,[1]; [4],25.5%
same,"odds ratio vs. placebo, Patients Reaching HbA1c Target <5.7%",[1]; [4],1.6
same,"odds ratio vs. placebo, Patients Reaching HbA1c Target <6%",[1]; [4],11.8
same,% of Patients Reaching HbA1c Target <5.7%,[1]; [5],4.3%
same,% of Patients Reaching HbA1c Target <6%,[1]; [5],23.4%
same,"odds ratio vs. placebo, Patients Reaching HbA1c Target <5.7%",[1]; [5],1.7
same,"odds ratio vs. placebo, Patients Reaching HbA1c Target <6%",[1]; [5],10.5
same,% of Patients Reaching HbA1c Target <5.7%,[1]; [6],18.0%
same,% of Patients Reaching HbA1c Target <6%,[1]; [6],46.0%
same,"odds ratio vs. placebo, Patients Reaching HbA1c Target <5.7%",[1]; [6],7.8
same,"odds ratio vs. placebo, Patients Reaching HbA1c Target <6%",[1]; [6],28.7
same,% of Patients Reaching HbA1c Target <5.7%,[1]; [7],20.9%
same,% of Patients Reaching HbA1c Target <6%,[1]; [7],51.2%
same,"odds ratio vs. placebo, Patients Reaching HbA1c Target <5.7%",[1]; [7],7.9
same,"odds ratio vs. placebo, Patients Reaching HbA1c Target <6%",[1]; [7],34.5
same,% of Patients Reaching HbA1c Target <5.7%,[1]; [8],30.2%
same,% of Patients Reaching HbA1c Target <6%,[1]; [8],37.7%
same,"odds ratio vs. placebo, Patients Reaching HbA1c Target <5.7%",[1]; [8],14.4
same,"odds ratio vs. placebo, Patients Reaching HbA1c Target <6%",[1]; [8],22.0
same,% of Patients Reaching HbA1c Target <5.7%,[1]; [9],42.9%
same,% of Patients Reaching HbA1c Target <6%,[1]; [9],54.3%
same,"odds ratio vs. placebo, Patients Reaching HbA1c Target <5.7%",[1]; [9],26.6
same,"odds ratio vs. placebo, Patients Reaching HbA1c Target <6%",[1]; [9],48.7
same,"Decrease Appetite (reported): n, number of patients with events",[2]; [10],n = 2;
same,Decrease Appetite (reported): percent of patients in treatment group experiencing the event,[2]; [10],3.8%
same,"Decrease Appetite (reported): n, number of patients with events",[2]; [11],n = 10;
same,Decrease Appetite (reported): percent of patients in treatment group experiencing the event,[2]; [11],18.2%
same,"Decrease Appetite (reported): n, number of patients with events",[2]; [12],n = 13;
same,Decrease Appetite (reported): percent of patients in treatment group experiencing the event,[2]; [12],25.5%
same,"Decrease Appetite (reported): n, number of patients with events",[2]; [13],n = 10;
same,Decrease Appetite (reported): percent of patients in treatment group experiencing the event,[2]; [13],18.9%
same,body weight change from baseline (in words),"[3]; 5 mg, 10 mg, and 15 mg doses of tirzepatide, significantly different from placebo and dulaglutide 1.5 mg",significantly decrease body weight from baseline
same,% of Patients Achieving Weight loss ≥10%,[3]; [14],5.8%
same,"odds ratio vs. placebo, Weight loss ≥10%",[3]; [14],7.1
same,% of Patients Achieving Weight loss ≥10%,[3]; [15],6.8%
same,% of Patients Achieving Weight loss ≥15%,[3]; [15],0%
same,"odds ratio vs. placebo, Weight loss ≥10%",[3]; [15],6.7
same,% of Patients Achieving Weight loss ≥10%,[3]; [16],16.4%
same,"odds ratio vs. placebo, Weight loss ≥10%",[3]; [16],20.8
same,% of Patients Achieving Weight loss ≥10%,[3]; [17],16.7%
same,% of Patients Achieving Weight loss ≥15%,[3]; [17],6.3%
same,"odds ratio vs. placebo, Weight loss ≥10%",[3]; [17],17.2
same,% of Patients Achieving Weight loss ≥10%,[3]; [18],39.2%
same,"odds ratio vs. placebo, Weight loss ≥10%",[3]; [18],67.6
same,% of Patients Achieving Weight loss ≥10%,[3]; [19],45.5%
same,% of Patients Achieving Weight loss ≥15%,[3]; [19],25.0%
same,"odds ratio vs. placebo, Weight loss ≥10%",[3]; [19],71.7
same,% of Patients Achieving Weight loss ≥10%,[3]; [20],37.7%
same,"odds ratio vs. placebo, Weight loss ≥10%",[3]; [20],66.2
same,% of Patients Achieving Weight loss ≥10%,[3]; [21],54.3%
same,% of Patients Achieving Weight loss ≥15%,[3]; [21],34.3%
same,"odds ratio vs. placebo, Weight loss ≥10%",[3]; [21],109.2
